{
  "source": "patent US8394832B2",
  "about": "“Methods and compositions using immunomodulatory compounds for the treatment of immunodeficiency disorders” (Celgene Corporation, priority 2004, dated 2013)",
  "key": {"IgE synthesis": {"tested_on": "IgE synthesis", "assay": "IgE ELISA of human PBMC treated with anti CD40 and IL-4 for three weeks", "format": "cell-based", "details": "504 h, human PBMCs in presence of CD40+IL-4 for three weeks (FIGS. 11A and B), read-out: IC50 of inhibition of IgE synthesis", "method": "Human PBMCs (1×10^6/ml) were treated with immunomodulatory compounds in presence of anti-CD40 (2 ug/ml) and IL-4 (40 ng/ml) for three weeks. Fifty microliter of supernatant was used for IgE ELISA, following the manufacturer's instruction. The absorbance was read by ELISA reader at OD=450 nm.\nIL-4 is a unique signal for B cells to produce IgE during the immunoglobulin class switch. To assess whether immunomodulatory compounds can regulated IgE synthesis, 1,3-dioxo-(2,6-dioxopiperidin-3-yl)-4-aminoisoindoline or 1-oxo-(2,6-dioxopiperidin-3-yl)-4-aminoisoindoline was incubated with human PBMCs in presence of CD40+IL-4 for three weeks. […] (FIGS. 11A and B).\nTreatment of PBMC: 200 μl of 1×10^6/ml human PBMC were plated in 96 well plate, and the cells were pretreated with IMiDs at indicated concentrations (60, 6, 0.6, 0.06, 0.006, 0.0006 uM) for 30 minutes. Anti CD40 (#AHS4002, Biosource, 2 μg/ml) and IL-4 (#200-04, Pepro Tech, 40 ng/ml) were added to each well. Human PBMC in presence of IMiDs, anti CD40 and IL-4 were incubated for three weeks. Fifty microliters of supernatant was subjected to IgE ELISA.\nIgE ELISA: The IgE ELISA Quantitation Kit was purchased from Bethyl Laboratories, Inc. (#E80-108). […] The ELISA plate was read at OD=450 nm in ELISA plate reader."}, "CD69": {"tested_on": "CD69", "assay": "FACS analysis of CD69 expression in CD19+ B cells", "format": "cell-based, human", "method": "(§1) Human buffy coat (50 ml) was diluted with 50 ml sterile PBS (Ca^++, Mg^++ free), and mixed gently. A 25 ml aliquot of diluted buffy coat was transferred to each 50 ml centrifuge tube, and Histopaque-1077 (14 ml, #1077-1, Sigma) was gently layered into the bottom of the tube. The sample was centrifuged at 2,000 rpm for 30 min at room temperature. The interface containing mononuclear cells was transferred into 50 ml centrifuge tube, and washed once with PBS (1200 rpm, 5 min). The supernatant was discarded. Cell pellet was resuspended in Miltenyi buffer. Anti-CD19^+ microbeads were added to the suspension (10^7 cells in 80 μl of buffer, 20 μl antibody beads for 10^7 cells) and incubated for 15 min at 4° C. Cell pellet was washed once and resuspended in 1 ml Miltenyi buffer. The cell suspension was added to the magnetic column, washed with 10 ml Miltenyi buffer in the column. CD19^+ cells are released by 1 ml Miltenyi Buffer without magnetic field. CD19^+ cells were washed twice with RPMI complete medium. B cells (2×10^5) were plated in 96 well plate.\nB cells were treated with 1,3-dioxo-(2,6-dioxopiperidin-3-yl)-4-aminoisoindoline (FIG. 3A) or 1-oxo-(2,6-dioxopiperidin-3-yl)-4-aminoisoindoline (FIG. 3B) in presence of anti IgM, anti CD40 and IL-4 for 3 days. The suspension of B cells was washed by PBS once, and incubated with FITC conjugated anti human CD69 for 30 min in the dark. B cells were subject to FACS analysis using flow cytometer (EPICS XL-MCL, Beckman Coulter Company).\nTo assess whether the effects of immunomodulatory compounds on IL-4 signaling impact on IL-4 mediated B cell activation, FACS array of immediate early expression marker CD69 expression at triplicates and six doses was examined using 1,3-dioxo-(2,6dioxopiperidin-3-yl)-4-aminoisoindoline or 1-oxo-(2,6-dioxopiperidin-3-yl)-4-aminoisoindoline. […] Thus, it is clear that immunomodulatory compounds have no impact on this process."}, "B cells": {"tested_on": "B cells", "assay": "B cell proliferation by BrdU ELISA", "format": "cell-based, human", "details": "3 days (FIG. 7A)", "method": "as §1\nB cells were pretreated with 1,3-dioxo-(2,6-dioxopiperidin-3-yl)-4-aminoisoindoline or 1-oxo-(2,6-dioxopiperidin-3-yl)-4-aminoisoindoline at the concentrations of 60 μM, 6 μM, 0.6 μM, 0.06 μM, 0.006 μM, and 0.0006 μM for 30 min, then were added 2 μg/ml of anti-IgM, 2 μg/ml of anti CD40, 40 ng/ml IL-4, 100 ng/ml of recombinant BAFF, and/or 0.5 μg/ml of LPS. B cells were typically treated with the immunomodulatory compound alone or in presence of one or more of above stimuli for 3 days. Stimulated B cells with or without the treatment with immunomodulatory compound were used for cell proliferation assay and cytokines analysis.\nThe crosslinking of B cell receptor antigen (“BCR”) is the primary signal for B cell activation in response to antigen, and is critical in initializing subsequent B cell activation, proliferation, and differentiation. To assess B cell activation, B cells were treated with 1,3-dioxo-(2,6-dioxopiperidin-3-yl)-4-aminoisoindoline or 1-oxo-(2,6-dioxopiperidin-3-yl)-4-aminoisoindoline in presence of stimuli for 3 days. 25 μl BrdU was added to 250 μl cell culture 24 hours before harvesting cells. B cells were dried at 60° C. after removal of labeling supernatant. 100 μl FixDenat solution was added to fix cells for 30 min at room temperature. FixDenat solution was removed by tapping plate, then 100 μl anti-BrdU-POD was added each well for 90 min, at room temperature, and the plate was washed three 3 times. 100 μl of substrate was added to plate for 10 min, then 100 μl stop solution was added. Absorbance was measured by using an ELISA microplate reader (Molecular Devices) at OD 450 nm. […]"}, "TNFα": {"tested_on": "TNFα", "assay": "TNFα ELISA of treated B cells", "format": "cell-based, human", "details": "activated CD19+ cells (FIG. 4)", "method": "as §1, with “plate. […]” for “plate.”\nTNFα levels in 1,3-dioxo-(2,6-dioxopiperidin-3-yl)-4-aminoisoindoline or 1-oxo-(2,6-dioxopiperidin-3-yl)-4-aminoisoindoline treated B cells were determined using TNFα ELISA."}, "[1]": {"details": "cited from earlier work; for hygroscopicity: crystalline polymorphic form; for interconversion of the polymorphic form: solvent system, humidity or heating"}},
  "data": [
    {"compound": "Nc1cccc2c1CN(C1CCC(=O)NC1=O)C2=O", "note": "(stereo not shown) [1-oxo-(2,6-dioxopiperidin-3-yl)-4-aminoisoindoline]", "values": [
      {"measurement": "IC50", "setting": "IgE synthesis", "result": "100 to 300", "unit": "nM"},
      {"measurement": "CD69 expression", "setting": "CD69; CD19+ B cells treated with anti human IgM, anti human CD40 and IL-4, 3 days (FIGS. 3A, 3B)", "result": "dose-dependently enhanced"},
      {"measurement": "CD69 expression", "setting": "CD69; IL-4 stimulated CD19+ B cells, triplicates, six doses (FIGS. 10A and B)", "result": "neither immunomodulatory compound inhibited"},
      {"measurement": "B cell proliferation", "setting": "B cells; combined with IgM (anti-IgM)", "result": "enhance"},
      {"measurement": "effect on B cell activation/proliferation", "setting": "B cells; compound alone", "result": "minimal effect"},
      {"measurement": "TNFα production in B cells", "setting": "TNFα", "result": "dose dependently enhance"}
    ]},
    {"compound": "Nc1cccc2c1CN(C1CCC(=O)NC1=O)C2=O", "note": "(stereo not shown) [Form A, 3-(4-amino-1-oxo-1,3 dihydro-isoindol-2-yl)-piperidene-2,6-dione]", "values": [
      {"measurement": "relative stability of the polymorphic form", "setting": "[1]; Form A among anhydrous polymorphs, Form E in aqueous solvent systems", "result": "most thermodynamically stable anhydrous polymorph"},
      {"measurement": "hygroscopicity", "setting": "[1]", "result": "weakly or not hygroscopic"}
    ]},
    {"compound": "Nc1cccc2c1CN(C1CCC(=O)NC1=O)C2=O", "note": "(stereo not shown) [Form B, 3-(4-amino-1-oxo-1,3 dihydro-isoindol-2-yl)-piperidene-2,6-dione]", "values": [
      {"measurement": "interconversion of the polymorphic form", "setting": "[1]", "result": "converts to Form E in aqueous solvent systems"}
    ]},
    {"compound": "Nc1cccc2c1CN(C1CCC(=O)NC1=O)C2=O", "note": "(stereo not shown) [Form C, 3-(4-amino-1-oxo-1,3 dihydro-isoindol-2-yl)-piperidene-2,6-dione]", "values": [
      {"measurement": "hygroscopicity", "setting": "[1]", "result": "not hygroscopic below about 85% RH"},
      {"measurement": "interconversion of the polymorphic form", "setting": "[1]", "result": "can convert to Form B at higher relative humidities"}
    ]},
    {"compound": "Nc1cccc2c1CN(C1CCC(=O)NC1=O)C2=O", "note": "(stereo not shown) [Form D, 3-(4-amino-1-oxo-1,3 dihydro-isoindol-2-yl)-piperidene-2,6-dione]", "values": [
      {"measurement": "hygroscopicity", "setting": "[1]", "result": "either weakly or not hygroscopic"},
      {"measurement": "interconversion of the polymorphic form", "setting": "[1]", "result": "will typically convert to Form B when stressed at higher relative humidities"}
    ]}
  ]
}
